Experimental data reported in PMC4585737, “Lipoproteins/peptides are sepsis-inducing toxins from bacteria that can be neutralized by synthetic anti-endotoxin peptides” (Scientific Reports, 2015).
“Also recorded” adds a separate entry of the source.

Columns and labels:
[1] = test system: human macrophages; experiment: TNFα production in human macrophages stimulated by LPS or LP, and its inhibition by SALP; format: cell-based
Procedure: In some stimulation experiments, also macrophages were used. Briefly, MNC were isolated from peripheral blood from healthy donors by the Hypaque-Ficoll gradient method. To differentiate the monocytes to macrophages cells were cultivated in Teflon bags in the presence of 2 ng/ml M-CSF in RPMI 1640 medium (endotoxin <0.01 EU/ml; Biochrom, Berlin, Germany) containing 100 U/ml penicillin, 100 μg/ml streptomycin, 2 mM L-glutamine and 4% heat-inactivated human serum type AB at 37 °C and 6% CO2. On day 6, cells were washed with PBS, detached by Trypsin-EDTA treatment and seeded at 1 × 10^6 cells/ml in complete medium in 96-well tissue culture dishes (Nunc, Wiesbaden, Germany). After stimulation of cells with various LP for 4 h, cell-free supernatants of duplicate samples were collected, pooled and stored at −20 °C until determination of cytokine content. Data shown are representative of at least three independent experiments.
LP preparations were pre-warmed for 30 min at 37 °C, and added to the cultures at 20 μl per well. In inhibition experiments, different SALP were added directly after LPS/LP/LTA administration. […]

[2] = test system: Balb/C mice; experiment: Lethal toxemia in galactosamine-sensitized mice; format: in vivo, mouse; settings: 200 μg/mouse peptide i.p. after 4 μg FSL-1 + D-galactosamine 18 mg/mouse; n = 6; up to 4 days; Kaplan-Meier, p < 0.05
Procedure: (§1) Seven-week-old female SPF-free Balb/C mice of 20 g of body weight, approximately, were purchased from Harlan Spain (Harlan Interfauna Iberica S.A., Barcelona, Spain) and randomly distributed in experimental groups (at least 4 animals per group except for the determination of lethal dose (n = 3)). Sample size was calculated based on previous results with the same animal model. Animals were housed in individually ventilated cages (5 mice per cage) bedded with hardwood bedding. Mice were provided ad libitum access to feed and water and lighting was adjusted to a 14-hour light/10-hour dark cycle. During the experiments, the condition of the animals was monitored daily every 4 hours and animals displaying persistent motor ataxia and hunched posture were euthanized.
To determine the lethal dose of FSL-1 in mice, the method of Galanos and collaborators[48] was followed with some modifications. Briefly, animals were intraperitoneally inoculated with increasing amounts of FSL-1 (50 ng, 500 ng, 5 μg and 50 μg) supplemented with 18 mg of D-galactosamine in a final volume of 200 μl of pyrogen-free saline. Galactosamine is known to sensitize mice to pro-inflammatory compounds such as LPS, thus making it possible to use lower amounts of the stimulatory drug[46]. The ability of Aspidasept® to protect mice from FSL-1 dependent lethal toxemia was assessed by co-administering FSL-1 (4 μg/mouse) with D-galactosamine (18 mg/mouse) intraperitoneally.
Results were globally analyzed by means of a Kaplan-Meier survival analysis (SPSS 15.0). When the survival plots were parallel, the data were compared by the log-rank test, whereas the Breslow-Gehan-Wilcoxon test was applied when the plots intersected.

[3] = test system: FSL-1 aggregates; experiment: FRET intercalation of peptide into FSL-1 aggregates; format: binding
Description: The ability of selected peptides to intercalate into LP aggregates was investigated exemplarily for FSL-1 and for LP SitC by FRET as described earlier. Briefly, the LP samples were doubly labelled with the fluorescent phospholipid dyes N-(7-nitrobenz-2-oxa-1,3-diazol-4-yl)-phosphatidyl ethanolamine (NBD-PE) and N-(lissamine rhodamine B sulfonyl)-phosphatidylethanolamine (Rh-PE) (Molecular Probes, Life Technologies). Intercalation of unlabeled molecules into the doubly labeled liposomes leads to probe dilution and to a lower FRET efficiency: Therefore, the emission intensity of the donor ID increases and that of the acceptor IA decreases (for the sake of clarity, only the quotient of the donor and acceptor emission intensity will be shown here).
In all the experiments, the peptides (100 μl of a 100 μM Hepes solution) were added to doubly labelled LP (900 μl of a 10 μM solution) at 50 s after equilibration. NBD-PE was excited at 470 nm and the donor and acceptor fluorescence intensities were monitored at 531 and 593 nm, respectively, and the fluorescence signal ID/IA was recorded for further 250 s. The measurement was repeated twice.

[4] = test system: Pam3CSK4; experiment: Isothermal titration calorimetry of peptide into Pam3CSK4; format: binding
Procedure: Microcalorimetric measurements of peptide binding to selected LP, i.e., Pam3CSK4 and FSL-1 were performed on a MCS isothermal titration calorimeter (Microcal, Freiburg, Germany) at 37 °C, as previously described. The LP containing solutions (0.05 mM, prepared as described above) were dispensed into the microcalorimetric cell (volume 1.5 ml), and the peptide solutions (1 mM) were loaded into the syringe compartment (volume 0.1 ml). After temperature equilibration, the peptide was titrated in 3 μl aliquots every 5 min into the LP-containing cell under constant stirring and the heat of interaction after each injection measured by the MCS instrument was plotted versus time.

[5] = test system: Balb/C mice; experiment: Serum cytokine response in mice after intraperitoneal inoculation; format: in vivo, mouse; settings: 400 μg peptide i.p. immediately after 40 μg FSL-1, different site, n = 5
Procedure: as §1
To study if FSL-1 had pro-inflammatory cytokine-inducing activity, animals were intraperitoneally inoculated with 40 μg of FSL-1 resuspended in 200 μl of pyrogen-free saline. Blood samples were taken both at 1.5 h or 4 h after FSL-1 challenge to measure TNFα and IL-6 levels. For this purpose, mice were anesthetised, a blood sample was obtained by the retroorbital plexus and serum cytokine levels were measured using Quantikine Immunoassays kits (R&D systems, Minneapolis, USA) following manufacturer’s instructions. Differences between groups were statistically analyzed using the Mann-Whitney U test.
To evaluate the ability of Aspidasept® to neutralize the FSL-1 induced pro-inflammatory cytokines, a group of animals received by the intraperitoneal route first 40 μg of FSL-1 and then 400 μg of the drug resuspended in 100 μl of pyrogen-free saline. This second injection was administered immediately after FSL-1 challenge at a different site of the peritoneum. TNFα and IL-6 levels were measured (see above) at 1.5 h or 4 h after challenge, respectively, coinciding with the peak of cytokine secretion, as determined in preliminary experiments.

For “GCKKYRRFRWKFKGKFWFWG [Aspidasept®, synthetic anti-LPS peptide (SALP), 20′mer, anti-septic therapeutic drug candidate]”, the “inhibition of TNFα production” value ([1]; stimulus LP SitC 1000 and 100 ng/ml, 10:1 excess of peptide, three independent measurements) was “strong inhibition”, the “inhibition of LP-dependent TNFα secretion” value ([1]; stimulus LP SitC, all tested concentrations, [LP]:[Pep] 1:10 and 1:100 weight%) was “almost totally abrogated” and the “survival of mice challenged with FSL-1” value [2] was “significant survival benefit”. For the same sequence, the “FRET: intercalation on increase in peptide concentration” value ([3]; FSL-1:Pep19-2.5 1:1 M/M vs 1:0.1 M/M) was “did not lead to a further increase in intercalation”, the “FRET: incorporation into the LP aggregate” value ([3]; [LP]:[Aspidasept] 1:0.1 molar, peptide added after 50 s, ID/IA signal) was “instantaneous incorporation” and the “ITC: Pam3CSK4:peptide interaction” value ([4]; LP 0.05 mM, peptide 1 mM titrated in 3 μl portions every 5 min, 37 °C) was “weak exothermic reaction; also recorded: no clear thermal reaction”. For the same sequence, the “affinity of the peptide towards the LP” value ([4]; Pam3CSK4, concluded from ITC) was “poor affinity”, the “inhibition of FSL-1 induced TNFα stimulation in mice” value ([5]; 1.5 h, p < 0.01) was “totally inhibited” and the “reduction of FSL-1 induced IL-6 levels in mice” value ([5]; 4 h) was “slight reduction”.
